Key:
5-HTT = assay: 5-HT-induced 5-HTT expression in PASMCs (Western blotting); type: cell-based, Wistar rats
Procedure: PASMCs were stimulated with 5-HT or not, as indicated. Cells were treated with KMUP-1 for 24 h before 5-HT stimulation. Whole lysates were collected and resolved by SDS-PAGE as previously described. Primary antibodies were anti-β-actin at: 1:10,000 dilution and anti-RhoA, anti-ROCK, antiphospho-ERK1/2, anti-phospho-AKT, anti-ERK1/2, anti-AKT, anti-5HTT, anti-5-HT2B and anti-eNOS at 1:1000. All blots were incubated with antibodies at 4° C. overnight. After being washed, the appropriate secondary antibodies were added at a dilution of 1:1000 for 1 h at room temperature. After extensive washing, blots were developed with a Super Signal enhanced chemiluminescence kit (Biorad, CA, USA) and visualized on Kodak AR film.
The expression of RhoA/ROCK and phosphorylation of ERK1/2 and AKT kinase in PASMCs were assessed by incubating the PASMCs with 5-HT (10 μM) for 15 min (peak time for RhoA/ROCK, ERK1/2 and AKT phosphorylation) and 5-HTT for 10 min (peak time for 5-HTT) after KMUP-1 (1-100 μM) was added to the culture of PASMCs for 24 h.

5-HT = assay: Plasma 5-HT levels in MCT-treated rats (Serotonin EIA); type: in vivo, Wistar rats; conditions: MCT-PAH rats, non-treated MCT-PAH 4.2±0.7
Procedure: The experiments were performed in adult male Wistar rats (300 to 350 g) in accordance with institutional guidelines after approval by the ethical review committee. PAH development and pulmonary expression of 5-HTT were examined in rats after 60 mg/kg single injection (i.p.) of monocrotaline (MCT). To assess the potential preventive effect of KMUP-1 on MCT-induced PAH and associated proliferation, we assigned rats at random to 2 groups of 8 animals which received KMUP-1 at 5 mg/kg/day p.o or 1 mg/kg/day i.p. All treatments were given once a day for 3 weeks after a single MCT injection (60 mg/kg i.p.) (Abe et al., 2004). On day 21, rats were anesthetized and pulmonary artery blood pressure (MPAP) was recorded as previously described. Lung tissues were dissected for Western blotting and immunohistochemistry.
After MCT-treatment, rats acquired severe PAH and received sodium pentobarbital (40 mg/kg, i.p.) at day 21 for surgical anesthesia and measurement of MPAP (Chung et al., 2010). Blood samples (1.0 mL) were obtained from the heart. Blood was transferred to plastic tubes that included EDTA and was centrifuged at 100 g for 20 min. The plasma was transferred to tubes and stored at −80° C. until analysis. Plasma 5-HT levels were determined using commercially available Serotonin EIA (IBL, Minneapolis, USA). […] Results were read from a standard curve. […]

For Cn1c(=O)c2c(ncn2CCN2CCN(c3ccccc3Cl)CC2)n(C)c1=O [KMUP-1, 7-[2-[4-(2-chlorophenyl)piperazinyl]ethyl]-1,3-dimethylxanthine], the “5-HT-induced expression of 5-HTT” value (5-HTT; 10 μM) was “inhibited”, the “5-HT-induced expression of 5-HTT” value (5-HTT; 1-100 μM, 24 h, then 5-HT 10 min) was “dose-dependently inhibited” and the “plasma concentration of 5-HT” value (5-HT; 1 mg/kg i.p.) was 3.2 ± 0.6 ng/mL. For the same compound, the “plasma concentration of 5-HT” value (5-HT; 5 mg/kg p.o.) was 3.2 ± 0.5 ng/mL.
